Counter-ions that a name gives are not always drawn.
Experiments:
[1] = target: T1, AAK1 (Homo sapiens, UniProt Q2M2I8); assay: Effect on AP2M1 phosphorylation in 293T cells co-transfected with AAK1 and AP2M1 (Western blot, anti-p-AP2M1); type: cell-based; conditions: p-AP2M1 level, incubated 3 h
T1 construct: HA; expressed in transfected cells; host or cells: 293T cells
Description: Experimental objective: The objective of this test example is to determine the effect of compounds on AP2M1 phosphorylation in cells.
Background principle: Adaptor-associated kinase 1 (AAK1), also known as AP2-associated kinase 1, is a 104 kDa serine/threonine kinase. AAK1 interacts with the adaptor protein 2 (AP2) complex and phosphorylates the threonine residue in the micro-subunit of AP2 (AP2M1), thereby increasing its binding affinity for certain tyrosine-based or dileucine-based sorting signals of some membrane receptors. The inhibitory effect of compounds on AAK1 was evaluated by detecting the phosphorylation level of AP2M1 in cells, so as to screen candidate compounds.
On the second day, each T25 flask was co-transfected with 16 µg of plasmids (1 µg of AAK1/HA/pIRES and 15 µg of Flag/AP2MI/pcDNA) using a Lip2000 transfection reagent. On the third day, the cells were digested and resuspended, centrifuged at 1000 rpm for 5 minutes, and then seeded into 24-well plates at 450 µl per well (2 × 10^5 cells/well). Gradient dilutions of the compounds to be tested were prepared, 50 µl was added to each well, mixed thoroughly, and incubated at 37°C for 3 h. DMSO was set as a control, and cells without plasmid transfection were set as a blank control. After incubation, the cells were collected and washed twice with PBS. The cells were lysed on ice for 30 minutes using a cell lysis buffer containing the protease inhibitor PMSF. The concentration of protein samples was determined using a BCA kit. Protein electrophoresis: The voltage for the stacking gel was set at 60 V, and that for the separating gel was set at 120 V. After electrophoresis, electrotransfer was initiated. Electrotransfer conditions were set at 250 mA for 2 h. Blocking with 5% BSA was performed for 1 h. A specific primary antibody, anti-p-AP2M1, was added, and incubation was carried out overnight at 4°C on a shaker. Washing with TBST was conducted 4 times, with 2.5 minutes each time. A secondary antibody was incubated on a shaker at room temperature for 1 h. Washing with TBST was conducted 4 times, with 2.5 minutes each time. ECL was used for development to detect the expression level of p-AP2M1. Western blot bands were processed and converted using Image J and GraphPad software to calculate IC50.
IC50 (half maximal inhibitory concentration) refers to the half-inhibitory concentration of the measured antagonist. It can indicate the concentration of a certain drug or substance (inhibitor) that achieves half of the inhibition effect on certain biological processes (or certain substances involved in these processes, such as enzymes, cellular receptors, or microorganisms).

[2] = target: T2, AAK1 (30-330) protein (Homo sapiens, UniProt Q2M2I8); assay: AAK1 kinase assay (ADP generated, detected by HPLC); type: biochemical; conditions: 3.5 nM AAK1, 22 µM ATP, 25°C, 3 h
T2 construct: (His)6x (N); TEV protease cleavage site (N); made in house; host or cells: Escherichia coli BL21(DE3)
T2 sequence (Q2M2I8 30-330): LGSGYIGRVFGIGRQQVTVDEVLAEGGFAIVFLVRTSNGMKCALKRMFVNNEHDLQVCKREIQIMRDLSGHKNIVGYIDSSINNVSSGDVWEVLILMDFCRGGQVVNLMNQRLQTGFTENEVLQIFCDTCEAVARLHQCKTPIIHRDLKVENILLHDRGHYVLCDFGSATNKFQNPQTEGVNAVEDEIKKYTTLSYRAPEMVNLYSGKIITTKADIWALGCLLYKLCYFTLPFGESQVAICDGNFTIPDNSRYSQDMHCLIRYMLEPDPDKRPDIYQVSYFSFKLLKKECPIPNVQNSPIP
Description: Experimental objective: The objective of this test example is to test the effect of compounds on AAK1 kinase function.
Background principle: AAK1 phosphorylates the threonine residue in the micro-subunit of AP2 (AP2M1). In this process, ATP provides phosphate groups to generate ADP. Therefore, the activity of AAK1 kinase can be evaluated by detecting the amount of ADP generated.
(§1) Expression of AAK1 (30-330) protein: The AAK1 sequence (residues 30-330) was cloned into the pET24N vector with an N-terminal (His)6x tag and a tobacco etch virus (TEV) protease cleavage site. The constructed vector was transformed into Escherichia coli BL21(DE3). When the bacteria were cultured with shaking to reach an OD value of 0.6, 1 mM IPTG was added. […] The bacterial cells were collected and subjected to ultrasonic disruption. The supernatant was obtained by centrifugation, and the protein was purified using Ni-NTA. After dialysis, the concentration and purity of the protein were determined.
The reaction mixture was incubated in a metal bath at 25°C for 3 h. The reaction was terminated by adding 1% SDS, and the amount of ADP generated was detected by HPLC. IC50 values were calculated using GraphPad software.

[3] = target: T2, AAK1 (30-330) protein; assay: CETSA test of binding ability to AAK1 protein (Western blot)
Description: Experimental objective: To detect the binding ability of compounds to AAK1 protein by means of a CETSA experiment.
Background principle: The CETSA experiment is a molecular detection means for measuring the affinity between drugs and target proteins. […] When a candidate drug is co-incubated with a target protein, if the candidate drug is an inhibitor of AAK1, it can bind to AAK1. […] On the contrary, the stability of the AAK1 protein after heating will be poorer, and the amount of the detected protein will be lower. In this way, the binding ability of the drug to the target protein can be evaluated, which is used for the screening of AAK1 protein inhibitors.
as §1
CETSA sample preparation: Samples were incubated with candidate drugs, control drugs, and control reagents separately for 30 minutes. Each group of samples was heated at approximately 10 pre-set temperature points. After being returned to room temperature, the samples were centrifuged at 20000 g, and the supernatants were collected. Protein samples were denatured by heating at 100°C for 10 minutes with a sample buffer. After the samples were returned to room temperature, Western blot detection was performed on them; the protein loading amount was controlled at 20 µg. […] The same operations were followed, and Western blot detection was conducted. Protein electrophoresis: The voltage for the stacking gel was set at 60 V, and that for the separating gel was set at 120 V. After electrophoresis, electrotransfer was initiated. Electrotransfer conditions were set at 250 mA for 2 h. Blocking with 5% BSA was performed for 1 h. A specific primary antibody was added, and incubation was carried out overnight at 4°C on a shaker. Washing with TBST was conducted 4 times, with 2.5 minutes each time. A secondary antibody was incubated on a shaker at room temperature for 1 h. Washing with TBST was conducted 4 times, with 2.5 minutes each time. ECL was used for development to detect the expression levels of AAK1 protein in different groups and at each temperature point. Western blot bands were processed and converted using Image J and GraphPad software to calculate EC50.

T1 sequence (Q2M2I8 whole entry): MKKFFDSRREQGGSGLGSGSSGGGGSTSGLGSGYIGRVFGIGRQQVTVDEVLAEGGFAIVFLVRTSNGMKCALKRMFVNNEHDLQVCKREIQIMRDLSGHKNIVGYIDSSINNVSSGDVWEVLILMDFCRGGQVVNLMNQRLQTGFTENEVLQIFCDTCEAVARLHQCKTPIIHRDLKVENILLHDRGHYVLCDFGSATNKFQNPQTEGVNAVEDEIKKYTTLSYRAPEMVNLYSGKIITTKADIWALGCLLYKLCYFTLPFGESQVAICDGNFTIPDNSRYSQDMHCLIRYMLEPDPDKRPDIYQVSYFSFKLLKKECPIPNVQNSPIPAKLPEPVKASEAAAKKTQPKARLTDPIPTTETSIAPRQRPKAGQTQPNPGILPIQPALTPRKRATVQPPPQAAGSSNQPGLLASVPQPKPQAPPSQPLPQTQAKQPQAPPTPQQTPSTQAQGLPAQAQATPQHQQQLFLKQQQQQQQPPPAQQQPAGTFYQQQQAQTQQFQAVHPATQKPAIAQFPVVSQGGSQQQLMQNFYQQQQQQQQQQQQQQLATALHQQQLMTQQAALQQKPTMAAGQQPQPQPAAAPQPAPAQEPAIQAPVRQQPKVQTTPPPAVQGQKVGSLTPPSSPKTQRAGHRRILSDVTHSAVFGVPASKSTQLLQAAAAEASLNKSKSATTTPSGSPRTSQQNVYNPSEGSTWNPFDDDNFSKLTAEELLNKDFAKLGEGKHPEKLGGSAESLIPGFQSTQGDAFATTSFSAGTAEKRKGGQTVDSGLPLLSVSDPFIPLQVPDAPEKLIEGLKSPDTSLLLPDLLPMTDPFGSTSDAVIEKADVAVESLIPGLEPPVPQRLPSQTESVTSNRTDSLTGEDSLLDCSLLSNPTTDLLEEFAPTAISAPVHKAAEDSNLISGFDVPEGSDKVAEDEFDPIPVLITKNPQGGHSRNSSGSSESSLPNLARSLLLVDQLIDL

Row | Compound | IC50 [1] [nM] | IC50 [2] [nM] | EC50 [3] [nM]
1 | CC(C)C[C@](C)(N)COc1ccc(-c2cncc3[nH]c(C(F)(F)F)nc23)nc1C(F)F [Compound 12] | 10 to 100 | 99.2 | 10 to 100
2 | CC(C)C[C@@](C)(N)COc1ccc(-c2cncc3[nH]c(C(F)(F)F)nc23)nc1C(F)F [Compound 13] | 10 to 100 | 168 | 10 to 100
3 | CC(C)C[C@](C)(N)COc1ccc(-c2c[nH]c3nc(F)ccc23)nc1C(F)F [Compound 14] | 10 to 100 | 102 | 10 to 100
4 | CC(C)C[C@@](C)(N)COc1ccc(-c2c[nH]c3nc(F)ccc23)nc1C(F)F [Compound 15] | 10 to 100 | 111 | 10 to 100
5 | COc1ccnc2[nH]cc(-c3ccc(OC[C@@](C)(N)CC(C)C)c(C(F)F)n3)c12 [Compound 16, (S)-1-{[2-(difluoromethyl)-6-(4-methoxy-1H-pyrrolo[2,3-b]pyridin-3-yl)pyridin-3-yl]oxy}-2,4-dimethylpentan-2-amine tris(trifluoroacetate)] | 10 to 100 | 87.2 | 10 to 100
6 | COc1ccnc2[nH]cc(-c3ccc(OC[C@](C)(N)CC(C)C)c(C(F)F)n3)c12 [Compound 17, (R)-1-{[2-(difluoromethyl)-6-(4-methoxy-1H-pyrrolo[2,3-b]pyridin-3-yl)pyridin-3-yl]oxy}-2,4-dimethylpentan-2-amine] | 100 to 1000 | 56.9 | 10 to 100
7 | CC(C)C[C@](C)(N)COc1ccc(-c2ccnc3c(F)cnn23)nc1C(F)F [Compound 18] | 10 to 100 | 42.5 | 10 to 100
8 | CC(C)C[C@@](C)(N)COc1ccc(-c2ccnc3c(F)cnn23)nc1C(F)F [Compound 19] | 10 to 100 | 87.3 | 10 to 100
9 | Cc1nc2ccnn2c(-c2ccc(OC[C@@](C)(N)CC(C)C)c(C(F)F)n2)c1F [Compound 20] | 10 to 100 | 102 | 10 to 100
10 | Cc1nc2ccnn2c(-c2ccc(OC[C@](C)(N)CC(C)C)c(C(F)F)n2)c1F [Compound 21] | 10 to 100 | 190 | 100 to 1000
11 | CC(C)C[C@](C)(N)COc1ccc(-c2ccnc3c(C(=O)O)cnn23)nc1C1CC1 [Compound 22] | 10 to 100 | 170 | 100 to 1000
12 | CC(C)C[C@](C)(N)COc1ccc(-c2c[nH]c3ncc(C#N)cc23)nc1C(F)F [Compound 27] | 100 to 1000 | 57.8 | 10 to 100
13 | CC(C)C[C@](C)(N)COc1ccc(-c2c[nH]c3ncc(C(F)F)cc23)nc1C(F)F [Compound 28, (S)-1-{[2-(difluoromethyl)-6-[5-(difluoromethyl)-1H-pyrrolo[2,3-b]pyridin-3-yl]pyridin-3-yl]oxy}-2,4-dimethylpentan-2-amine formate] | 10 to 100 | 65.3 | 10 to 100
14 | CC(C)C[C@](C)(N)COc1ccc(-c2c[nH]c3ncc(C(F)F)cc23)cc1C(F)(F)F [Compound 33] | 10 to 100 | 69.5 | 10 to 100
15 | CC(C)C[C@](C)(N)COc1ncc(-c2c[nH]c3ncc(C(F)F)cc23)c(C(F)(F)F)n1 [Compound 39] | 10 to 100 | 101 | 10 to 100

Further lines, results first:

Row | IC50 [1] [nM] | IC50 [2] [nM] | EC50 [3] [nM] | Compound
16 | 10 to 100 | 32.1 | 10 to 100 | CC(C)C[C@@](C)(N)COc1ccc(-c2ccnc3ccnn23)nc1C(F)F [Compound 1, (R)-1-{[2-(difluoromethyl)-6-(pyrazolo[1,5-a]pyrimidin-7-yl)pyridin-3-yl]oxy}-2,4-dimet hylpentan-2-amine]
17 | 10 to 100 | 28.3 | 10 to 100 | CC(C)C[C@@](C)(N)COc1ccc(-c2c[nH]c3ncccc23)nc1C(F)F [Compound 2, (R)-1-{[2-(difluoromethyl)-6-(1H-pyrrolo[2,3-b]pyridin-3-yl)pyridin-3-yl]oxy}-2,4-dimet hylpentan-2-amine]
18 | 10 to 100 | 21.2 | 10 to 100 | CC(C)C[C@](C)(N)COc1ccc(-c2c[nH]c3ncccc23)nc1C(F)F [Compound 3]
19 | 10 to 100 | 45.9 | 10 to 100 | CC(C)C[C@](C)(N)COc1ccc(-c2c[nH]c3nc(C(F)(F)F)ccc23)nc1C(F)F [Compound 4]
20 | 10 to 100 | 86.1 | 10 to 100 | CC(C)C[C@@](C)(N)COc1ccc(-c2c[nH]c3nc(C(F)(F)F)ccc23)nc1C(F)F [Compound 5]
21 | 10 to 100 | 75.2 | 10 to 100 | CC(C)C[C@](C)(N)COc1ccc(-c2ccnc3[nH]cnc23)nc1C(F)F [Compound 6]
22 | 10 to 100 | 101 | 100 to 1000 | CC(C)C[C@@](C)(N)COc1ccc(-c2ccnc3[nH]cnc23)nc1C(F)F [Compound 7]
23 | 10 to 100 | 129 | 10 to 100 | CC(C)C[C@](C)(N)COc1ccc(-c2ccnc3[nH]c(C(F)(F)F)nc23)nc1C(F)F [Compound 8]
24 | 10 to 100 | 99.2 | 10 to 100 | CC(C)C[C@@](C)(N)COc1ccc(-c2ccnc3[nH]c(C(F)(F)F)nc23)nc1C(F)F [Compound 9]
25 | 10 to 100 | 152 | 10 to 100 | CC(C)C[C@](C)(N)COc1ccc(-c2ccnc3c2nc(C(F)(F)F)n3C)nc1C(F)F [Compound 10]
26 | 10 to 100 | 123 | 10 to 100 | CC(C)C[C@@](C)(N)COc1ccc(-c2ccnc3c2nc(C(F)(F)F)n3C)nc1C(F)F [Compound 11]
27 | < 10 | 12.1 | < 10 | CC(C)C[C@](C)(N)COc1ccc(-c2cn(C)c3ncc(F)cc23)nc1C(F)F [Compound 43, (S)-1-{[2-(difluoromethyl)-6-(5-fluoro-1-methyl-1H-pyrrolo[2,3-b]pyridin-3-yl)pyridin-3-yl]oxy}-2,4-dimethylpentan-2-amine]

— patent EP4692089A1, “NITROGEN-CONTAINING HETEROCYCLIC COMPOUND AS AAK1 INHIBITOR” (Alicorn Pharmaceutical Co., Ltd., priority 2023, dated 2024)
